Reference: EP0166726B1, “10-ETHYL-8,10-DIDEAZAMINOPTERINS” (SRI INTERNATIONAL, priority 1983, dated 1985)

System: L-1210 leukemia cells
Assay: L-1210 murine leukemia assay (increase in median life span)
Type: in vivo, Mice
Conditions: for ILS%: increase in median life span vs untreated controls, at LD10 dose, 5 injections every other day starting one day after transplantation of 10^6 tumor cells/mouse; for LD10 Dose: mice, injected once per day every other day, total of 5 injections; for Cells Remaining: number of neoplastic cells remaining after treatment at LD10 dose, 10^6 tumor cells/mouse transplanted
Experimental: This is a standard assay that is used to evaluate the efficacy of compounds as antineoplastic agents for treating humans. The assay is described by D. J. Hitchinson, D. C. Robinson, D. Martin, O. L. Ittenson and Dillenberg, Journal Cancer Research, (1962) 22:57-72. It is a procedure for evaluating a compound for increase in median life span in treated animals and unteated controls both infected with L-1210 leukemia cells. […] Mice are injected once per day every other day for a total of 5 injections starting one day after transplantation of 10^6 tumor cells/mouse. The results of this assay with several, 8,10-dideazaminopterin analogs were as follows:
It is apparent from the above results that the life spans of the mice were increased considerably by administration of the invention compound and that this compound has surprising activity when compared to the non-alkylated and n-propyl or methyl analogs. The % ILS data represent comparisons of log values, and thus differences in the % ILS which appear minor mask large differences in cytotoxic activity. Thus, as shown, the ethyl derivative is 40 times as effective as the unsubstituted compound and 100 times as effective as the n-propyl derivative in terms of reducing the number of neoplastic cells; i.e., e.g., the number of cells remaining after 10-ethyl analog treatment is only 1/40 and 1/100 of that remaining from treatment with the above analogs, respectively. The assay and these conclusions are described by Schabel, F. M., Symposium on Proliferation and Spread of Neoplastic Cells, M. D. Anderson, Tumor Institute, Houston, Texas (1968), p. 379 ff.

Molecule: 10-ethyl-8,10-dideazaminopterin
- ILS%: +235%
- LD10 Dose: 1.5 Mg/Kg
- Cells Remaining: 100
- times as effective as the unsubstituted compound in terms of reducing the number of neoplastic cells (relative to 8,10-dideazaminopterin, ratio of cells remaining): 40 times
- times as effective as the n-propyl derivative in terms of reducing the number of neoplastic cells (relative to 10-n-propyl-8,10-dideazaminopterin, ratio of cells remaining): 100 times

Molecule: 10-Propyl-8,10-dideazaminopterin [10-n-propyl-8,10-dideazaminopterin]
- ILS%: +176%
- LD10 Dose: 6.0 Mg/Kg
- Cells Remaining: 10,000

Molecule: Nc1nc(N)c2nc(CCc3ccc(C(=O)N[C@@H](CCC(=O)O)C(=O)O)cc3)ccc2n1 [8,10-dideazaminopterin]
- ILS%: +189%
- LD10 Dose: 0.75 Mg/Kg
- Cells Remaining: 4000

Molecule: 10-Methyl-8,10-dideazaminopterin
- ILS%: +203%
- LD10 Dose: 0.6 Mg/Kg
- Cells Remaining: 1000

Molecule: CN(Cc1cnc2nc(N)nc(N)c2n1)c1ccc(C(=O)N[C@@H](CCC(=O)O)C(=O)O)cc1 [Methotrexate]
- ILS%: +187%
- LD10 Dose: 15 Mg/Kg
